Data on one compound can be found in US4446149A, “Medicine for treatment of cervical erosion” (priority 1981, dated 1984).

The conditions of data set [1]: cited from earlier work.
For data set [2] the following is noted: cited from earlier work. This is another data set of the same source.
The test system of the next data set is carnosinase. The note with it: taken into the body; with the aid of carnosinase; cited from earlier work.
Another data set deals with dd strain male mice. Kind of data set: Acute toxicity of L-carnosine (peritoneal and oral). The class given is in vivo. As for the experimental part:
(§1) […] LD50 was computed by the Van der Waerden method based on the number of dead mice after 72 hours. In the examination, L-carnosine was diluted with a physiological saline so that its administration concentration would be 0.1-0.3 ml/10 g.

Assay in data set [3]: as above
The class given is in vivo. Particulars: mouse, in vivo; for LD50 at 72 h: dd strain male mice. How it is done: as §1

The mark [4] stands for this setting: peritoneal 15,000 mg/kg, after about 30 minutes.

“Also recorded” adds a separate entry of the source. Read-outs that look alike come from different tables or passages of the source.

By LD50 is commonly meant the dose expected to kill half of the subjects tested. For `NCCC(=O)N[C@@H](Cc1cnc[nH]1)C(=O)O` [L-carnosine, β-alanyl-L-histidine], in data set [1], the “pH value of its aqueous solution” value is given as 8.0-8.5. For the same compound, the solubility in water result in data set [2] was “easily soluble in water; also recorded: readily soluble in water”. In addition, in the data set with carnosinase, the metabolism result is “decomposed, with the aid of carnosinase, into L-histidine and β-alanine”. Moreover, the “toxicity (overall)” value in the data set with dd strain male mice (acute toxicity test, dd strain male mice) was “quite low toxicity”. Further, in the data set on dd strain male mice (oral 15,000 mg/kg), the “appreciable effect (symptoms)” value is “did not show any appreciable effect”. Further, the “symptoms when further advanced” value in the data set with dd strain male mice (peritoneal 15,000 mg/kg) is “the animals repeated horizontal rollings and upon contact stimulation the reflex became hyperreactive with an attendant spasm, leading to ultimate death”. Also, in the data set on dd strain male mice (peritoneal 15,000 mg/kg, about 30 minutes after administration), the “symptoms: raising of the tails and clonospasm” value is listed as “seen in as many as half of the experimental animals”. Besides, the experimental animals died entry in the data set with dd strain male mice (peritoneal 15,000 mg/kg, after 1 hour and 30 minutes) was “Half”; in the data set on dd strain male mice (peritoneal 15,000 mg/kg, after 5 hours) it was “all of the experimental animals died”. Moreover, the “symptoms: frontal or escape reflexes” value with dd strain male mice (setting [4]) is on record as “no frontal or escape reflexes”. In addition, the “symptoms: spontaneous movement and respiration” value in the data set with dd strain male mice (setting [4]) is given as “a reduction in spontaneous movement accompanied by an irregular or decreased number of respirations”. Further, the LD100 in the data set with dd strain male mice (peritoneal, mice) was 15,000 mg/kg. Also, the mortality at 12 h in data set [3] (15000 mg/kg, oral 15,000 mg/kg, after 12 hours, read-out: mice died) came to 10%. For the same compound, in data set [3] (ip, 15000 mg/kg, peritoneal 15,000 mg/kg, after 2 hours, read-out: experimental animals died), the mortality at 2 h is 80%. The LD50 at 72 h in data set [3] (ip, peritoneal, Van der Waerden method, 72 hours (75-hour value elsewhere in the source), read-out: LD50 at 95% level of confidence) was 9090 mg/kg; in data set [3] (oral, (the minimum lethal dose), read-out: LD50), more than 14900 mg/kg.
